Measurements taken from PMC4687871, “Delphinidin Inhibits Tumor Growth by Acting on VEGF Signalling in Endothelial Cells” (PLoS ONE, 2015).
Where “and” joins values, the source holds several entries; their conditions need not be identical. Identical values can stand only once.

What was measured:
HUVECs = test: Endothelial cell proliferation (CellTiter 96 AQueous One); assay type: cell-based, human; conditions: for change of VEGF-induced proliferation: delphinidin 10 μg/ml + VEGF 10 ng/ml; for change of rate of basal proliferation: delphinidin 10 μg/ml, 1% human serum
Description: HUVECs (12,000 cells per well) were seeded on 24-multiwell plates, or in the case of VEGFR2 studies HUVECs (10000 cells per well) were seeded on 96-multiwell plates, in high serum culture medium and allowed to attach for 4–5 h. The 20% serum medium was then replaced by 1% HS medium. After 24 h incubation, medium was removed and replaced with 500 μl /well or 280 μl/well (for VEGFR2 studies) of 1% HS medium containing tested substances. Cells were pre-treated with or without a MEK1/2 MAP kinase inhibitor (U-0126, 10 μM) or a PI3 kinase inhibitor (LY-294002, 10 μM), then treated with or without 10 ng/ml of VEGF, in presence or in absence of 10 μg/ml delphinidin. Cells were allowed to proliferate for 3 days and HUVEC proliferation was determined at 24 h, 48 h, and 72 h by a colorimetric assay using the ‘CellTiter 96 AQeous One Solution Cell Proliferation Assay’ from Promega.
Cells were pre-treated with or without a VEGFR2 specific inhibitor (Ki8751, 10 nM), then treated with or without 10 ng /ml in presence or absence of 10 μg/ml delphinidin. Cells were allowed to proliferate for 2 days and HUVECs proliferation was determined at 24 h and 48 h by a colorimetric assay using the ‘CellTiter 96 AQeous One Solution Cell proliferation Assay’ from Promega.

B16-F10 melanoma cells = test: Melanoma cell proliferation (CyQUANT); assay type: cell-based, mouse; conditions: 24, 48 and 72 h
Description: B16-F10 (5,000 cells per well) were seeded on 96-multiwell plates in completed medium and allowed to attach overnight. […] Proliferation was determined at 24 h, 48 h and 72 h by a fluorimetric assay using the CyQUANT Cell Proliferation Assay Kit (Molecular Probes, Eugene, OR). After growth medium removal, dye-binding solution was added into each microplate well and cells were incubated at 37°C for 45 minutes. The fluorescence levels were read on a fluorescent microplate reader (Synergy HT, Biotek, Winooski, VT) with filters for 485 nm excitation and 530 nm emission.

VEGFR2 [1] = test: VEGFR2 expression and phosphorylation in HUVECs (Western blot); assay type: cell-based, human
Description: (§1) HUVECs and B16-F10 cells were treated with delphinidin (10 μg/ml) for 3 h and then incubated without or with VEGF (10 ng/ml) for 30 min for VEGFR2 phosphorylation or 24 h for VEGFR2 expression. Then, the cells were […], washed twice with PBS and trypsinized. The cells were lysed with RIPA buffer freshly in presence of protease inhibitor. Cells were allowed to lyse for 45 min on ice and centrifuged at 15000 g for 15 min at 4°C. The supernatant was […], and protein concentrations in the supernatant were determined by protein assay.
(§2) The proteins (30 μg) were separated on 10% sodium dodecyl sulfate-polyacrylamide gel electrophoresis (SDS-PAGE) and transferred on the nitrocellulose membranes. The membranes were incubated with anti-VEGFR2 or anti-pVEGFR2. The anti-β-actin (Sigma-Aldrich) was used to visualize protein gel loading. The membranes were then incubated with appropriate HRP-conjugated secondary antibody. The protein-antibody complexes were detected by chemiluminescence using the Western Blotting Luminol reagent kit (Santa Cruz Biotechnology®).

VEGFR2 [2] = test: VEGFR2 expression and phosphorylation in B16-F10 cells (Western blot); assay type: cell-based, mouse
Description: as §1, §2

CREB = CREB phosphorylation in HUVECs (Western blot); assay type: cell-based, human; conditions: 30 min
Description: (§3) HUVECs (9,000 cells per dish of 3.5 cm diameter) were seeded on petri dishes in high serum culture medium and allowed to attach for 4–5 h. The 20% serum medium was then replaced by 1% HS medium. […] Appropriate quantities of extracted proteins were resolved in a SDS-10% polyacrylamide gel and electro transferred onto PVDF membranes, as described previously. […] Immobilized antigens were detected by chemiluminescence using HRP-conjugates as secondary antibodies (1/60,000), an ECL assay kit and autoradiography films. Autoradiography signals were captured on a GeneGenius Bio Imaging System (Syngene) using the GeneSnap software and analyzed using the GeneTools software. […] Immobilized antigens were detected as described above.

[3] = test system: B16-F10 melanoma cell xenograft; test: Tumor growth induced by B16-F10 melanoma cell xenograft in mice; assay type: in vivo, mouse; conditions: 10 mg/kg i.p. once a week for 3 weeks; 30th day; vs vehicle-treated mice
Description: (§4) Two groups of 7 male C57BL/6N mice were used at 6 weeks old for tumor induction. The experimental protocol is illustrated on in Fig 1A. Before any treatments, mouse weights were registered on day 1 (D1). On the following day (D2), all mice were subcutaneously injected on the ventral side near each hindleg with B16-F10 melanoma cells (25x10^4 cells in 100 μl of 0.9% NaCl). The seventh day after tumor cell inoculation (D9), mice were treated by i.p. injection (100 μl/10 g mice) with either drug solvent (1% ethanol) or 10 mg delphinidin/kg. Delphinidin as well as solvent injections were repeated twice at 7-day intervals (D16 and D23). Then, seven days later (D30) after pentobarbital anesthesia, mice were sacrificed by cervical dislocation and tumors were dissected and weighted.

[4] = Mouse weight during xenograft experiment; assay type: in vivo; conditions: 10 mg/kg i.p. once a week for 3 weeks; over 30 days; vs non-treated mice
Description: as §4

p38 MAP kinase = p38 MAP kinase activation in HUVECs (Western blot); assay type: cell-based, human; conditions: delphinidin 10 μg/ml; 30 min
Description: as §3

ATF1 = ATF1 phosphorylation in HUVECs (Western blot); assay type: cell-based, human; conditions: delphinidin 10 μg/ml, 30 min
Description: as §3

PDE1 = test: Purified PDE radio-enzymatic assay, PDE1; assay type: biochemical, bovine; conditions: substrate 1 μM cGMP, preliminarily reported in ref 26
Description: (§5) PDE1, PDE3, PDE4 and PDE5 were isolated by anion-exchange chromatography from bovine aortic smooth muscle cytosolic fraction as previously described. PDE2 was isolated from human platelets. Purified PDEs were stored as aliquots at -80°C until use. PDE activity was determined by a radio-enzymatic assay as described previously. The concentration of delphinidin that produced 50% inhibition (IC50) of substrate hydrolysis (determined at 1μM cAMP or cGMP) was calculated by non-linear regression analysis (GraphPad Prism, San Diego, CA) of concentration-response curves performed with 1–300 μM of delphinidin and included 6 different concentrations of delphinidin.

PDE2 = biological target: T1, PDE2 (Homo sapiens, UniProt O00408); test: Purified PDE radio-enzymatic assay, PDE2; assay type: biochemical; conditions: substrate 1 μM cAMP, preliminarily reported in ref 26
T1 construct: PDE2 was isolated from human platelets; from tissue; host or cells: human platelets
T1 sequence (O00408 whole entry): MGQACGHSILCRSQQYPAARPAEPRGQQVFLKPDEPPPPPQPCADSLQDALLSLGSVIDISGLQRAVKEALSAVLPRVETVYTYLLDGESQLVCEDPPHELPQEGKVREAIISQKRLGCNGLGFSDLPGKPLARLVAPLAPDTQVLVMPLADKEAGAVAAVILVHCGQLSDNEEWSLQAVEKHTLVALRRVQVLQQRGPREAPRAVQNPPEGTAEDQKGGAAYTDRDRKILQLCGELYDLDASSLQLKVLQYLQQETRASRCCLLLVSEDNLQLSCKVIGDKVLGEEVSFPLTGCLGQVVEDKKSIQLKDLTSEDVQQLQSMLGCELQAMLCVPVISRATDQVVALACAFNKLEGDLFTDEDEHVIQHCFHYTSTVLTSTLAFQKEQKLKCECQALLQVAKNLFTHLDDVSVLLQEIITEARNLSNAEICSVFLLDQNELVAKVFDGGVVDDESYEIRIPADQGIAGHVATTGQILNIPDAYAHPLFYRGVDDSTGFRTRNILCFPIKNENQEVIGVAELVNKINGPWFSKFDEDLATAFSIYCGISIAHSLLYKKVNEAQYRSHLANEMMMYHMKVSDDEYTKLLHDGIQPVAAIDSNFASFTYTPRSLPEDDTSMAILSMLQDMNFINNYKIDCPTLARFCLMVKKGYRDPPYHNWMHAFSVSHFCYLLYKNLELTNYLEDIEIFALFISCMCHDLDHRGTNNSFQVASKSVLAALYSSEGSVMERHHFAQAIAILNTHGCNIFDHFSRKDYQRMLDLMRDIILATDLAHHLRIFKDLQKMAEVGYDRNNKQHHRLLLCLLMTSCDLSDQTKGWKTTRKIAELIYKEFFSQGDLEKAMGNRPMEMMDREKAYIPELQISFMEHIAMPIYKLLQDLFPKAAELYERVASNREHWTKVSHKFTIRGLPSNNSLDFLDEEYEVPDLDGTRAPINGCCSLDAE
Description: as §5

PDE4 = test: Purified PDE radio-enzymatic assay, PDE4; assay type: biochemical, bovine; conditions: substrate 1 μM cAMP; preliminarily reported in ref 26
Description: as §5

PDE5 = biological target: T2, PDE5 (Bos taurus, UniProt Q28156); test: Purified PDE radio-enzymatic assay, PDE5; assay type: biochemical, bovine; conditions: substrate 1 μM cGMP; preliminarily reported in ref 26
T2 construct: isolated by anion-exchange chromatography from bovine aortic smooth muscle cytosolic fraction; from tissue; host or cells: bovine aortic smooth muscle, cytosolic fraction
Description: as §5

human NSCLC cells = test system: human NSCLC cells; parameters: method as in PMID 24124611; conditions: athymic nude mice subcutaneously implanted with human NSCLC cells; vs control mice; cited from earlier work

Question: For `O=c1cc(N2CCOCC2)oc2c(-c3ccccc3)cccc12` [LY-294002, 2-(4-Morpholinyl)-8-phenyl-4H-1-benzopyran-4-one, reference compound], which “effect on the inhibitory effect of delphinidin on basal proliferation” value (HUVECs; LY-294002 10 μM + delphinidin 10 μg/ml) is on record?
Answer: completely blunted

Question: And the “increase of basal proliferation” value (HUVECs; LY-294002 10 μM, 72 h)?
Answer: not at 72 h

Question: For `COc1cc2nccc(Oc3ccc(NC(=O)Nc4ccc(F)cc4F)c(F)c3)c2cc1OC` [Ki8751, reference compound], which “ability of VEGF to increase endothelial cell proliferation” value (HUVECs; Ki8751 10 nM + VEGF, 24 and 48 h) is on record?
Answer: completely abolished

Question: Which “proliferation rate (% of control)” value (HUVECs; U-0126 10 μM + VEGF 10 ng/ml, 72 h, n.s. vs control) does the source give for `N#CC(=C(N)Sc1ccccc1N)C(C#N)=C(N)Sc1ccccc1N` [U-0126, 1,4-diamino-2,3-dicyano-1,4-bis(2-aminophenylthio)-butadiene, reference compound] here?
Answer: 131%

Question: What about the “effect on the inhibitory effect of delphinidin on basal proliferation” value (HUVECs; U-0126 10 μM + delphinidin 10 μg/ml) of the same compound?
Answer: reversed to some extent closer to basal level

Question: For VEGF, which “B16-F10 melanoma cell proliferation” value (B16-F10 melanoma cells; VEGF 10 ng/ml) is on record?
Answer: not able increase

Question: And the VEGFR2 phosphorylation (VEGFR2 [1]; VEGF 10 ng/ml 30 min)?
Answer: increased

Question: What about the VEGFR2 expression (VEGFR2 [1]; VEGF 10 ng/ml 24 h) of the same compound?
Answer: increased

Question: And the VEGFR2 expression (VEGFR2 [2]; VEGF 10 ng/ml)?
Answer: did not modify

Question: And the VEGFR2 phosphorylation (VEGFR2 [2]; VEGF 10 ng/ml 30 min)?
Answer: increased

Question: What about the “increase of CREB phosphorylation” value (CREB; VEGF 10 ng/ml) of the same compound?
Answer: +484%

Question: Which “decrease of tumor weight” value [3] does the source give for `Oc1cc(O)c2cc(O)c(-c3cc(O)c(O)c(O)c3)[o+]c2c1` [delphinidin, Delphinidin] here?
Answer: 83%

Question: And the “mouse weight as a percent of the starting weight” value [4]?
Answer: unchanged

Question: What about the B16-F10 proliferation (B16-F10 melanoma cells; delphinidin 10 μg/ml) of the same compound?
Answer: did not inhibit

Question: What about the “change of VEGF-induced proliferation” value (HUVECs; 24 h) of the same compound?
Answer: -56%

Question: And the “change of VEGF-induced proliferation” value (HUVECs; 48 h)?
Answer: -85%

Question: What about the “change of VEGF-induced proliferation” value (HUVECs; 72 h) of the same compound?
Answer: -130%

Question: And the “change of rate of basal proliferation” value (HUVECs; 24 h)?
Answer: -52%

Question: What about the “change of rate of basal proliferation” value (HUVECs; 48 h) of the same compound?
Answer: -66%

Question: What about the “change of rate of basal proliferation” value (HUVECs; 72 h) of the same compound?
Answer: -70%

Question: What about the “ability of VEGF in increasing VEGFR2 phosphorylation” value (VEGFR2 [1]; delphinidin 10 μg/ml 3 h, then VEGF 10 ng/ml 30 min) of the same compound?
Answer: completely prevented

Question: What about the “ability of VEGF in increasing VEGFR2 expression” value (VEGFR2 [1]; delphinidin 10 μg/ml 3 h, then VEGF 10 ng/ml 24 h) of the same compound?
Answer: completely prevented

Question: And the VEGFR2 expression (VEGFR2 [1]; delphinidin 10 μg/ml alone)?
Answer: no effect

Question: And the VEGFR2 phosphorylation (VEGFR2 [1]; delphinidin 10 μg/ml alone)?
Answer: no effect

Question: And the “VEGF-dependent VEGFR2 phosphorylation” value (VEGFR2 [2]; delphinidin 10 μg/ml 3 h, then VEGF 30 min)?
Answer: inhibited

Question: And the “basal p38 MAP kinase activation” value (p38 MAP kinase)?
Answer: did not affect

Question: What about the “increase of CREB phosphorylation induced by VEGF” value (CREB; delphinidin 10 μg/ml + VEGF 10 ng/ml) of the same compound?
Answer: completely prevented

Question: And the CREB phosphorylation (CREB; delphinidin 10 μg/ml alone)?
Answer: no significant effect

Question: What about the “phosphorylation of ATF1” value (ATF1; after stimulation by VEGF 10 ng/ml) of the same compound?
Answer: abolished

Question: And the “phosphorylation of ATF1” value (ATF1; control conditions)?
Answer: abolished

Question: What about the IC50 (PDE1; +CaM/Ca) of the same compound?
Answer: 15 ± 3 µM

Question: And the “IC50 PDE1” value (PDE1; +CaM/Ca)?
Answer: 5 ± 1 µg/mL

Question: And the IC50 (PDE1; no regulator)?
Answer: 33 ± 6 µM

Question: And the “IC50 PDE1” value (PDE1; no regulator)?
Answer: 11 ± 2 µg/mL

Question: And the IC50 (PDE2; +5μM cGMP)?
Answer: 19.8 µM and 18 µM

Question: And the IC50 (PDE2; no regulator)?
Answer: 115 µM and 103 µM

Question: And the IC50 (PDE4)?
Answer: 109 ± 12 µM

Question: And the “IC50 PDE4” value (PDE4)?
Answer: 37 ± 4 µg/mL

Question: What about the IC50 (PDE5) of the same compound?
Answer: 49.5 µM and 44 µM

Question: And the tumor growth (human NSCLC cells)?
Answer: significant inhibition
